pEC50: −log10 of the molar value. Where two headings read alike, the source gives them in different places.
Molecular target: T1, rCB2 (Rattus norvegicus, UniProt Q9QZN9)
T1 construct: expressed in transfected cells; host or cells: HEK293 cells stably co-expressing GIRK1/2 channels
T1 sequence (Q9QZN9 1-360): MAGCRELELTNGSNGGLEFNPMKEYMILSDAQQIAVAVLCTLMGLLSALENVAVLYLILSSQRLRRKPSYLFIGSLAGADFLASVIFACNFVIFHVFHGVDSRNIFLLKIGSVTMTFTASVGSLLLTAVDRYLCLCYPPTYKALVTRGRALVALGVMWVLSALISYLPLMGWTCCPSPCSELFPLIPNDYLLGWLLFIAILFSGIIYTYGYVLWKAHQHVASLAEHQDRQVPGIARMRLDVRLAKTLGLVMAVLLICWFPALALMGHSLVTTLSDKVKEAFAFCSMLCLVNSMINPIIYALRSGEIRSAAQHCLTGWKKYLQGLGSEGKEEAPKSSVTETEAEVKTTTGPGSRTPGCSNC
Assay: Thallium flux assay in HEK/GIRK cells expressing rCB2
Format: cell-based
Details: for rCB2 GIRK (−) 2-AG % Max ± SEM / rCB2 GIRK (+) 2-AG % Max ± SEM: % of maximal 2-AG response
Experimental: To identify new compounds capable of potentiating CB2 responses to the endogenous agonist 2-AG, we used a thallium flux assay measuring the ability of ligands to enhance 2-AG-induced responses in cells expressing rCB2 and GIRK1/2 channels to screen a collection of FDA-approved drugs. Compounds were added to cells loaded with thallium-sensitive dye and allowed to incubate for 2.3 min, whereupon a submaximal concentration (EC20) of 2-AG was added to the cells and the signal was monitored for an additional 2.7 min. The ~1000 compound collection was initially screened at a single point using a 10 µM concentration of the compound. Test compounds that potentiated the cellular response to 2-AG by a minimum of 3 standard deviations above the average EC20 agonist response were selected as potential PAM hits. A total of 63 putative PAMs were identified; of these, 13 were confirmed as active with concentration-dependent activity at the rCB2 receptor.
The cell lines used in this manuscript were generated in-house. Their preparation is described in detail in Qi et al.. Cells were used for 10 passages for experiments and day-to-day signals in both the CB2 and CB1 lines were stable across this passage number. Human Embryonic Kidney (HEK) 293 cells stably expressing rCB2 and the G protein Gqi9 were maintained in Dulbecco’s modified Eagle media (DMEM) containing 10% FBS, 1× antibiotic/antimycotic, 20 mM HEPES, 1 mM sodium pyruvate, 2 mM L-glutamine, 1× non-essential amino acids, 700 µg/mL G418 sulfate, and 0.6 µg/mL puromycin. HEK cells stably expressing rCB2 or rCB1 and the G protein inwardly rectifying potassium channel (GIRK) were maintained in DMEM/F12 containing 10% FBS, 1× antibiotic/antimycotic, 20 mM HEPES, 1 mM sodium pyruvate, 2 mM L-glutamine, 1× non-essential amino acids, 700 µg/mL G418 sulfate, and 0.6 µg/mL puromycin. Cells were monitored by periodic PCR detection using the LookOut Mycoplasma PCR Detection Kit (Sigma-Aldrich, St Louis, MO, USA) to eliminate potential mycoplasma infection. Reagents were obtained from Invitrogen (Waltham, MA, USA) unless otherwise noted.
Thallium flux assays were performed as previously described in Niswender et al., 2008 [31]. HEK/GIRK cells stably expressing rCB1 or rCB2 (15,000 cells/20 µL/well) were seeded in 384-well, poly-D-lysine coated assay plates (Corning BioCoat®) (Corning Inc., Corning, NY, USA) and incubated overnight at 37 °C in the presence of 5% CO2. The next day, the medium was removed and replaced with 20 μL of 1.2 µM thallium-sensitive dye Thallos-AM (ION biosciences, San Marcos, TX, USA), prepared as a DMSO stock solution mixed in a 1:1 ratio with 10% (w/v) pluronic acid F-127, and diluted in assay buffer (Hank’s balanced salt solution, 20 mM HEPES, pH 7.4). Following 1 h at room temperature, the dye solution was removed and replaced with 20 µL assay buffer. For screening of the FDA-Approved Drug Collection, 10 mM DMSO stocks of library compounds were transferred to daughter plates using an Echo acoustic plate reformatter (Labcyte, Sunnyvale, CA, USA) and diluted in assay buffer to a 2× final concentration. For concentration–response curve experiments, compounds were serially diluted 1:3 into 10-point concentration–response curves in DMSO, transferred to daughter plates using the Echo or Bravo Automated Liquid Handling Platform (Agilent Technologies, Santa Clara, CA, USA), and diluted in assay buffer to a 2× final concentration. Thallium flux was measured using the Hamamatsu FDSS/μCELL Kinetic Plate Imager (Bridgewater, NJ, USA). After the establishment of a fluorescence baseline (excitation, 480 ± 20 nm; emission, 540 ± 30 nm), 20 µL (2×) of test compound was added to the cells at 1 s and the response was measured. […]

[1] = rCB2 GIRK (−) 2-AG pEC50 ± SEM, thallium flux, absence of 2-AG
[2] = thallium flux, presence of EC20 2-AG

Structure (SMILES) | pEC50 [1] | pEC50 (rCB2 GIRK EC50 in absence of 2-AG, thallium flux, absence of 2-AG) | pEC50 (rCB2 GIRK EC50 in presence of 2-AG, thallium flux, presence of EC20 2-AG) | rCB2 GIRK (−) 2-AG % Max ± SEM (thallium flux, absence of 2-AG) [%] | rCB2 GIRK (+) 2-AG % Max ± SEM [2] [%] | pEC50 (rCB2 GIRK (+) 2-AG pEC50 ± SEM, thallium flux, presence of EC20 2-AG) | rCB2 GIRK (−) 2-AG pEC50 ± SEM (thallium flux, absence of 2-AG) | rCB2 GIRK (+) 2-AG pEC50 ± SEM [2] | EC50 (thallium flux rCB2, vehicle instead of AM630, read-out: pEC50 of mycophenolate mofetil CRC, vehicle (converted)) [nM] | pEC50 (thallium flux, absence of 2-AG, read-out: rCB2 GIRK EC50 in absence of 2-AG) | pEC50 (thallium flux, presence of EC20 2-AG, read-out: rCB2 GIRK EC50 in presence of 2-AG)
O=C(NCC1CCOCC1)c1cnc(Nc2ccc(Cl)cc2Cl)nc1C(F)(F)F [GW-842,166X, 2-(2,4-dichloroanilino)-N-(oxan-4-ylmethyl)-4-(trifluoromethyl)pyrimidine-5-carboxamide] | 7.26 | 7.25 | 7.13 | 89 ± 5 | 82 ± 4 | – | – | – | – | – | –
CC1(Cc2ccccc2)COc2cc(C(=O)N3CCCCC3)ccc21 (centres unmarked) [MDA7, 1-[(3-benzyl-3-methyl-2,3-dihydro-1-benzofuran-6-yl)carbonyl]piperidine] | < 5.00 | – | – | −64 ± 13 | −65 ± 15 | < 5.00 | < 5.0 | < 5.0 | – | – | –
COc1c(C)c2c(c(O)c1C/C=C(\C)CCC(=O)OCCN1CCOCC1)C(=O)OC2 [Mycophenolate mofetil] | – | – | – | 71 ± 5 | 74 ± 2 | – | – | – | 339 | 6.81 | 6.64
COc1c(C)c2c(c(O)c1C/C=C(\C)CCC(=O)O)C(=O)OC2 [Mycophenolic acid] | – | – | – | – | – | – | – | Inactive | – | – | –

Source: article PMC12112332, “Characterization of Novel and Known Activators of Cannabinoid Receptor Subtype 2 Reveals Mixed Pharmacology That Differentiates Mycophenolate Mofetil and GW-842,166X from MDA7” (International Journal of Molecular Sciences, 2025)
